Biological target: GST-tagged truncated human mutant G2019S LRRK2 (Homo sapiens, UniProt Q5S007, G2019S)
Assay: LRRK2 G2019S Km ATP LanthaScreen assay
Type: biochemical
Conditions: 134 μM ATP (Km ATP), LRRKtide substrate, mean IC50 values; read-out: LRRK2 pIC50 (converted)
In short: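 LanthaScreen TR-FRET read with fluorescein-LRRKtide and 134 μM ATP (Km) in Tris pH 8.5/10 mM MgCl2 buffer. The enzyme was preincubated 15 min with compound at room temperature, and the reaction ran 90 min at ambient temperature. Stopped with EDTA plus Tb anti-phospho-LRRKtide antibody; the 520/495 nm ratio gave a 4-parameter logistic IC50, mean of several runs.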

Question: Which IC50 does the source give for `CC1CN(C2COCC2O)CCN1c1cc2nc(Nc3cnn(C4CC4)c3Cl)ncc2cc1Cl` (single isomer, unassigned) [Ex-12.8, (3S,4S) or (3R, 4R)-4-((R) or (S)-4-(6-chloro-2-((5-chloro-1-cyclopropyl-1H-pyrazol-4-yl)amino)quinazolin-7-yl)-3-methylpiperazin-1-yl)tetrahydrofuran-3-ol] here?
Answer: The IC50 was 0.088 nM.

Question: For `CC1CCN1c1cc2nc(Nc3cnn(C4CCN(C5(C)COC5)CC4)c3)ncc2cc1Cl` (stereo not shown) [Ex-4.11, 6-chloro-7-(2-methylazetidin-1-yl)-N-{1-[1-(3-methyloxetan-3-yl)piperidin-4-yl]-1H-pyrazol-4-yl}quinazolin-2-amine], which IC50 is on record?
Answer: The IC50 was 35.3 nM.

Question: With `CC(C)(O)Cn1cc(Nc2ncc3cc(Cl)c(N4CCC(C)(O)CC4)cc3n2)cn1` [Ex-3.12, 1-(6-chloro-2-{[1-(2-hydroxy-2-methylpropyl)-1H-pyrazol-4-yl]amino}quinazolin-7-yl)-4-methyl-piperidin-4-ol] as the molecule, how does the IC50 read?
Answer: The IC50 was 0.221 nM.

Question: For `Cc1c(Nc2ncc3cc(Cl)c(N4CCN(C5CCCC5C#N)CC4)cc3n2)cnn1C1CC1` (single isomer, unassigned) [Ex-1.6, (3S,4S or 3R,4R)-2-(4-{6-chloro-2-[(1-cyclopropyl-5-methyl-1H-pyrazol-4-yl)amino]quinazolin-7-yl}piperazin-1-yl)cyclopentane-1-carbonitrile], which IC50 is on record?
Answer: Its IC50 is 1.89 nM.

Question: `CCn1ncc(Nc2ncc3ccc(N4CCCC4C)cc3n2)c1C` (single isomer, unassigned) [Ex-1.8, (S) or (R) N-(1-ethyl-5-methyl-1H-pyrazol-4-yl)-7-(2-methylpyrrolidin-1-yl)quinazolin-2-amine] was tested. Which IC50 did it give?
Answer: The IC50 was 16 nM.

Question: With `CN1CCC2CCN(c3cc4nc(Nc5cnn(C6CC6)c5Cl)ncc4cc3Cl)C2C1` (stereo not shown) [Ex-1.42, 6-chloro-N-(5-chloro-1-cyclopropyl-1H-pyrazol-4-yl)-7-(6-methyloctahydro-1H-pyrrolo[2,3-c]pyridin-1-yl)quinazolin-2-amine] as the molecule, how does the IC50 read?
Answer: Its IC50 is 25.6 nM.

Question: How did the IC50 turn out when `C[C@H]1CN(C)CCN1c1cc2nc(Nc3cnn(C4(C)CC4)c3Cl)ncc2cc1Cl` [Ex-4.36, 6-chloro-N-[5-chloro-1-(1-methylcyclopropyl)-1H-pyrazol-4-yl]-7-[(2S)-2,4-dimethylpiperazin-1-yl]quinazolin-2-amine] was run?
Answer: Its IC50 is 6.06 nM.

Question: Which IC50 does the source give for `Cc1c(Nc2ncc3cc(Cl)c(N4CCC(C)(O)CC4)cc3n2)cnn1C(C)(C)C#N` [Ex-6.15, 2-(4-{[6-chloro-7-(4-hydroxy-4-methylpiperidin-1-yl)quinazolin-2-yl]amino}-5-methyl-1H-pyrazol-1-yl)-2-methylpropanenitrile] here?
Answer: The IC50 was 3.57 nM.

Question: `COCC12CC(n3cc(Nc4ncc5cc(Cl)c(N6CCC7(CC6)COC(CO)C7)cc5n4)cn3)(C1)C2` (single isomer, unassigned) [Ex-3.16, (R) or (S)-{8-[6-chloro-2-({1-[3-(methoxymethyl)bicyclo[1.1.1]pentan-1-yl]-1H-pyrazol-4-yl}amino)quinazolin-7-yl]-2-oxa-8-azaspiro[4.5]decan-3-yl}methanol] was tested. Which IC50 did it give?
Answer: The IC50 was 0.218 nM.

Question: With `CC1(N2CCN(c3cc4nc(Nc5cnn(C6CC6(F)F)c5Cl)ncc4cc3Cl)CC2)COCC1O` (single isomer, unassigned) [Ex-6.35, (3S,4S) or (3R,4R) 4-[4-(6-chloro-2-{[5-chloro-1-(2,2-(R) or (S)difluorocyclopropyl)-1H-pyrazol-4-yl]amino}quinazolin-7-yl)piperazin-1-yl]-4-methyloxolan-3-ol] as the molecule, how does the IC50 read?
Answer: Its IC50 is 20.8 nM.

Question: For `CC1(N2CCN(c3cc4nc(Nc5cnn(C6CC6)c5Cl)ncc4cc3Cl)CC2)COC1` [Ex-4.58, 6-chloro-N-(5-chloro-1-cyclopropyl-1H-pyrazol-4-yl)-7-[4-(3-methyloxetan-3-yl)piperazin-1-yl]quinazolin-2-amine], which IC50 is on record?
Answer: Its IC50 is 2.32 nM.

Question: `O[C@@H]1COC[C@@H]1N1CCN(c2cc3nc(Nc4cnn(C5CC5)c4Cl)ncc3cc2Cl)CC1` (single isomer, unassigned) [Ex-3.51, (3R,4R) or (3S,4S) 4-(4-{6-chloro-2-[(5-chloro-1-cyclopropyl-1H-pyrazol-4-yl)amino]quinazolin-7-yl}piperazin-1-yl)oxolan-3-ol] was tested. Which IC50 did it give?
Answer: The IC50 was 16.3 nM.

Question: With `COCC12CC(n3cc(Nc4ncc5cc(Cl)c(N(C)C)cc5n4)cn3)(C1)C2` [Ex-3.18, 6-chloro-N-2-{1-[3-(methoxymethyl)bicyclo[1.1.1]pentan-1-yl]-1H-pyrazol-4-yl}-N-7-,N-7-dimethylquinazoline-2,7-diamine] as the molecule, how does the IC50 read?
Answer: Its IC50 is 1.95 nM.

Question: Which IC50 does the source give for `Cn1nc(Cl)cc1Nc1ncc2cc(Cl)c(N3CCN(C4(C)COCC4O)CC3)cc2n1` (stereo not shown) here?
Answer: The IC50 was 5.97 nM.

Question: With `Cc1c(Nc2ncc3cc(Cl)c(N4CCN(C5(C)COC(C)(C)C5)CC4)cc3n2)cnn1C1CC1` (single isomer, unassigned) [Ex-12.3] as the molecule, how does the IC50 read?
Answer: The IC50 was 186 nM.

Question: How did the IC50 turn out when `Cc1c(Nc2ncc3cc(Cl)c(N4CCN(C5(C)COCC5O)CC4)cc3n2)cnn1C1CC1(F)F` (single isomer, unassigned) [Ex-6.41, (3S,4S) or (3R,4R) 4-[4-(6-chloro-2-{[1-(2,2-(R) or (S)difluorocyclopropyl)-5-methyl-1H-pyrazol-4-yl]amino}quinazolin-7-yl)piperazin-1-yl]-4-methyloxolan-3-ol] was run?
Answer: Its IC50 is 32.9 nM.

Question: With `CC1(n2ncc(Nc3ncc4cc(Cl)c(N5CCN(C6COC6)CC5)cc4n3)c2Cl)CC1` [Ex-3.22, 6-chloro-N-[5-chloro-1-(1-methylcyclopropyl)-1H-pyrazol-4-yl]-7-[4-(oxetan-3-yl)piperazin-1-yl]quinazolin-2-amine] as the molecule, how does the IC50 read?
Answer: Its IC50 is 0.954 nM.

Question: With `Cc1cc2cnc(Nc3cnn(C45CC(C4)C5)c3Cl)nc2cc1N1CCN(C2(C)COCC2O)CC1` (single isomer, unassigned) [Ex-13.4, (3S,4S) or (3R, 4R)-4-(4-(2-((1-(bicyclo[1.1.1]pentan-1-yl)-5-chloro-1H-pyrazol-4-yl)amino)-6-methylquinazolin-7-yl)piperazin-1-yl)-4-methyltetrahydrofuran-3-ol] as the molecule, how does the IC50 read?
Answer: The IC50 was 0.267 nM.

Question: How did the IC50 turn out when `Cc1cc2cnc(Nc3cnn(C4CC4)c3Cl)nc2cc1N1CCN(C2COCC2O)CC1` (single isomer, unassigned) [Ex-5.8, (3S,4S) or (3R,4R) 4-(4-{2-[(5-chloro-1-cyclopropyl-1H-pyrazol-4-yl)amino]-6-methylquinazolin-7-yl}piperazin-1-yl)oxolan-3-ol] was run?
Answer: Its IC50 is 0.17 nM.

Question: For `CC1(N2CCN(c3cc4nc(Nc5cnn(C6CC6(F)F)c5Cl)ncc4cc3Cl)CC2)COC1` (single isomer, unassigned) [Ex-4.60, 6-chloro-N-[5-chloro-1-(2,2-(R) or (S)difluorocyclopropyl)-1H-pyrazol-4-yl]-7-[4-(3-methyloxetan-3-yl)piperazin-1-yl]quinazolin-2-amine], which IC50 is on record?
Answer: The IC50 was 3.24 nM.

Question: For `Cc1c(Nc2ncc3cc(Cl)c(N4CCC(C)(O)C(C)C4)cc3n2)cnn1C1CC1` (single isomer, unassigned) [Ex-3.47, (3R,4R) or (3S,4S) or (3R,4S) or (3S,4R) 1-{6-chloro-2-[(1-cyclopropyl-5-methyl-1H-pyrazol-4-yl)amino]quinazolin-7-yl}-3,4-dimethylpiperidin-4-ol], which IC50 is on record?
Answer: The IC50 was 10.2 nM.

Question: For `OC1COCC1N1CCN(c2cc3nc(Nc4cnn(C5CC5(F)F)c4Cl)ncc3cc2Cl)CC1` (single isomer, unassigned) [Ex-6.29, (3S,4S) or (3R,4R) 4-[4-(6-chloro-2-{[5-chloro-1-(2,2-(R) or (S)difluorocyclopropyl)-1H-pyrazol-4-yl]amino}quinazolin-7-yl)piperazin-1-yl)oxolan-3-ol], which IC50 is on record?
Answer: The IC50 was 15.2 nM.

Reference: US20230303540A1 (Merck Sharp & Dohme LLC, priority 2020, published 2023)
